Measurements published in US11357777B2, “Use of sGC stimulators for the treatment of nonalcoholic steatohepatitis (NASH)” (Cyclerion Therapeutics, Inc., priority 2016, dated 2022).
Like-named read-outs stand apart in the source and are kept apart here.

Experiments:
[1] = system: TNFα, IL-6 and IL-10 cytokine levels; assay: LPS model of acute inflammation in mice; type: in vivo; details: 10 mg/kg oral gavage; LPS IV 1 h later; blood 2 h after LPS
Experimental: Acute murine models of inflammation have previously been described (see for example, Engelberts I et. al., Lymphokine Cytokine Res. 10(1-2):127-31 (1991) and Durez P et al., J Exp Med. 177:551-5 (1993)). In these models, mice or rats are administered the compound of interest followed by an injection of LPS (LPS stands for lipopolysaccharide, 100 ng IV administration) one hour later. LP S is a component of bacterial cell walls and elicits a rapid and strong systemic inflammatory response. Two hours after LPS injection, blood is collected, plasma and serum are isolated and cytokine levels are measured. The concentrations of TNFα and IL-6 in blood increase after stimulation with bacterial lipopolysaccharide (LP S). Measurement of cytokine production is carried out with either ELISA or cytokine bead assay (CBA).
The sGC stimulator Compound B was assessed in such an animal model using C57BL/6 mice. The structure of Compound B is depicted below:
The ability of Compound B to modulate cytokine release in vivo was assessed. Compound B was administered by oral gavage (formulated in methylcellulose as the carrier) at 1 and 10 mg/kg doses and the levels of the pro-inflammatory cytokines TNFα and IL-6 were measured, as well as the anti-inflammatory cytokine IL-10. Vehicle (V) and dexamethasone (dex, 5 mg/kg) were used as negative and positive controls, respectively, and 10 mice were used per group.

[2] = Distribution of sGC stimulators in tissues, rats (liver and plasma by LC-MS/MS); type: in vivo; details: Wistar, rat, 2 h post fifth dose, male rats, read-out: total Liver:Plasma ratio
Experimental: The purpose of this experiment was to determine compound concentrations in the plasma and tissues of animals dosed with sGC stimulators for 5 days Q.D.
In a first experiment, the sGC stimulator Compound B (described previously in Example 2) was dosed for 5 Days Q.D. to male Wister rats. Rats were divided into four study groups and dosed according to the below table:
The animals were dosed daily for five consecutive days according the table above. On each day of dosing, frozen aliquots of each dosing solution were thawed and the animals were weighed and dosed accordingly. On day 5, two hours post the fifth dose, blood was collected by orbital bleed. Blood samples were collected in EDTA tubes pre-loaded with 5 μL of 100 mM IBMX Plasma was be separated by centrifugation for 10 minutes at 4° C. and then stored at −80° C.
A Ketamine/Xylazine/pbs solution as a 5:1:4 ratio was administered I.P. at 1 ul per gram. Once the rat was fully anesthetized (as determined by checking its reflexes) and while the heart was still beating, a needle was inserted into the left ventricle. Approximately 20 mls of PBS/IBMX/heparin solution were then perfused. The right atrium was snipped, and perfusion continued for approximately 10 additional mls (30 mls total). At this point, the femoral artery was snipped and perfusion was continued until there was no longer blood (only clear fluid) collecting in the abdominal cavity. Several tissues, including liver, were isolated and weighed followed by snap freezing.
A second separate and similar experiment was carried out with Compound C. The structure of Compound C is depicted below. The preparation and characterization of this compound was described in patent application publication WO2014144100, published 18 Sep. 2014.
For this second experiment, rats were divided into four study groups and dosed according to the below table:
Samples were analyzed using liquid chromatography (LC) with tandem mass spectrometric detection (MS/MS) using positive electrospray ionization. The standard curve range was from 0.1 to 400 ng/mL. […]
In order to prepare the tissues for measurement, the naïve livers and the livers isolated after treatment were removed from the −80° C. freezer and placed on liquid nitrogen. The liver weight was recorded and then the tissue placed in a Geno grinding vial containing two 7/16″ steel beads. […] Approximately 200 mg of tissue from each sample was weighed and recorded. […] The samples were analyzed by LC-MS/MS.
Total liver and plasma concentrations were measured and liver concentrations were corrected for total liver weight. Liver: Plasma ratios were determined by dividing liver compound concentration by the plasma compound concentration. […]

[3] = Single ascending dose Phase I study in healthy volunteers; type: in vivo, human; details: oral capsule, top-line clinical data
Source text: In a randomized, double-blind, placebo-controlled, single ascending dose Phase I study enrolling 46 healthy volunteers, participants were randomized 3:1 to receive a single dose of Compound B or placebo administered via an oral capsule.

## OC(CNc1nc(-c2cc(-c3ccon3)n(Cc3ccccc3F)n2)ncc1F)(C(F)(F)F)C(F)(F)F [Compound B]
[1]
  levels of IL-6: significantly reduced
  levels of IL-10: increasing
  levels of TNFα: significantly reduced
[2]; 1 mg/kg PO Q.D. 5 days
  Kp: 19
[2]; 10 mg/kg PO Q.D. 5 days
  Kp: 20
[3]
  distribution to tissues: evidence of extensive distribution to tissues
